Measurements taken from patent publication US20070010671A1, “Novel quinazoline derivatives and methods of treatment related to the use thereof” (priority 2003, published 2007).

What follows are compounds tested against MCH receptor (Homo sapiens, UniProt Q99705) (assay: High throughput functional screening FLIPR/FDSS6000: inhibition of MCH-evoked intracellular Ca2+ changes). Details: class by percent of control at 10^-7 M or IC50.
Assay type: cell-based
In short: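 In a kinetic calcium-flux format, compounds were tested at various concentrations against 50 nM MCH. Fluo4-loaded cells expressing a constitutively active, non-endogenous receptor were imaged at 488/530 nm for 290 s after agonist addition.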

SMILES | class
CN(C)c1nc(N[C@H]2CC[C@@H](NC(=S)NCCc3ccccc3)CC2)nc2ccccc12 [compound 203] | 3 (Class 3: The value of percent of control at 10^−7 M was more than 60% or the value of IC50 was more than 200 nM.)
COc1ccc(NC(=S)N[C@H]2CC[C@@H](Nc3nc(N(C)C)c4ccccc4n3)CC2)cc1OC [compound 204] | 1 (Class 1: The value of percent of control at 10^−7 M was less than 40% or the value of IC50 was less than 50 nM.)
CCc1ccc(NC(=S)N[C@H]2CC[C@@H](Nc3nc(N(C)C)c4ccccc4n3)CC2)cc1 [compound 205] | 2 (Class 2: The value of percent of control at 10^−7 M was from 40% to 60% or the value of IC50 was from 50 nM to 200 nM.)
CSc1ccccc1NC(=S)N[C@H]1CC[C@@H](Nc2nc(N(C)C)c3ccccc3n2)CC1 [compound 206] | 2 (Class 2: The value of percent of control at 10^−7 M was from 40% to 60% or the value of IC50 was from 50 nM to 200 nM.)
CN(C)c1nc(N[C@H]2CC[C@@H](NC(=S)Nc3ccccc3OC(F)(F)F)CC2)nc2ccccc12 [compound 207, N-(cis-4-{[4-(dimethylamino)quinazolin-2-yl]amino}cyclohexyl)-N′-[2-(trifluoromethoxy)phenyl]thiourea] | 2 (Class 2: The value of percent of control at 10^−7 M was from 40% to 60% or the value of IC50 was from 50 nM to 200 nM.)
CN(C)c1nc(N[C@H]2CC[C@@H](NC(=S)Nc3ccccc3C(F)(F)F)CC2)nc2ccccc12 [compound 208] | 3 (Class 3: The value of percent of control at 10^−7 M was more than 60% or the value of IC50 was more than 200 nM.)
CN(C)c1nc(N[C@H]2CC[C@@H](NC(=S)Nc3ccc(F)c(F)c3F)CC2)nc2ccccc12 [compound 209, N-(cis-4-{[4-(dimethylamino)quinazolin-2-yl]amino}cyclohexyl)-N′-(2,3,4-trifluorophenyl)thiourea] | 2 (Class 2: The value of percent of control at 10^−7 M was from 40% to 60% or the value of IC50 was from 50 nM to 200 nM.)
CN(C)c1nc(N[C@H]2CC[C@@H](NC(=S)Nc3cccc(Cl)c3Cl)CC2)nc2ccccc12 [compound 210] | 3 (Class 3: The value of percent of control at 10^−7 M was more than 60% or the value of IC50 was more than 200 nM.)
CN(C)c1nc(N[C@H]2CC[C@@H](NC(=S)Nc3ccc(F)cc3F)CC2)nc2ccccc12 [compound 211] | 3 (Class 3: The value of percent of control at 10^−7 M was more than 60% or the value of IC50 was more than 200 nM.)
COc1ccc(OC)c(NC(=S)N[C@H]2CC[C@@H](Nc3nc(N(C)C)c4ccccc4n3)CC2)c1 [compound 212] | 2 (Class 2: The value of percent of control at 10^−7 M was from 40% to 60% or the value of IC50 was from 50 nM to 200 nM.)
CN(C)c1nc(N[C@H]2CC[C@@H](NC(=S)Nc3c(F)cccc3F)CC2)nc2ccccc12 [compound 213] | 3 (Class 3: The value of percent of control at 10^−7 M was more than 60% or the value of IC50 was more than 200 nM.)
CN(C)c1nc(N[C@H]2CC[C@@H](NC(=S)Nc3ccc([N+](=O)[O-])cc3Cl)CC2)nc2ccccc12 [compound 214] | 2 (Class 2: The value of percent of control at 10^−7 M was from 40% to 60% or the value of IC50 was from 50 nM to 200 nM.)
CN(C)c1nc(N[C@H]2CC[C@@H](NC(=S)Nc3ccccc3OC(F)F)CC2)nc2ccccc12 [compound 215] | 3 (Class 3: The value of percent of control at 10^−7 M was more than 60% or the value of IC50 was more than 200 nM.)
CCc1ccccc1NC(=S)N[C@H]1CC[C@@H](Nc2nc(N(C)C)c3ccccc3n2)CC1 [compound 216] | 1 (Class 1: The value of percent of control at 10^−7 M was less than 40% or the value of IC50 was less than 50 nM.)
CN(C)c1nc(N[C@H]2CC[C@@H](NC(=S)Nc3cc(C(F)(F)F)ccc3F)CC2)nc2ccccc12 [compound 217] | 3 (Class 3: The value of percent of control at 10^−7 M was more than 60% or the value of IC50 was more than 200 nM.)
CN(C)c1nc(N[C@H]2CC[C@@H](NC(=S)Nc3ccccc3F)CC2)nc2ccccc12 [compound 218] | 3 (Class 3: The value of percent of control at 10^−7 M was more than 60% or the value of IC50 was more than 200 nM.)
CN(C)c1nc(N[C@H]2CC[C@@H](NC(=S)Nc3ccccc3I)CC2)nc2ccccc12 [compound 219] | 2 (Class 2: The value of percent of control at 10^−7 M was from 40% to 60% or the value of IC50 was from 50 nM to 200 nM.)
COc1cc([N+](=O)[O-])ccc1NC(=S)N[C@H]1CC[C@@H](Nc2nc(N(C)C)c3ccccc3n2)CC1 [compound 220, N-(cis-4-{[4-(dimethylamino)quinazolin-2-yl]amino}cyclohexyl)-N′-(2-methoxy-4-nitrophenyl)thiourea] | 1 (Class 1: The value of percent of control at 10^−7 M was less than 40% or the value of IC50 was less than 50 nM.)
COc1ccc(C)cc1NC(=S)N[C@H]1CC[C@@H](Nc2nc(N(C)C)c3ccccc3n2)CC1 [compound 221, N-(cis-4-{[4-(dimethylamino)quinazolin-2-yl]amino}cyclohexyl)-N′-(2-methoxy-5-methylphenyl)thiourea] | 1 (Class 1: The value of percent of control at 10^−7 M was less than 40% or the value of IC50 was less than 50 nM.)
CN(C)c1nc(N[C@H]2CC[C@@H](NC(=S)Nc3cccc(SC(F)(F)F)c3)CC2)nc2ccccc12 [compound 222] | 3 (Class 3: The value of percent of control at 10^−7 M was more than 60% or the value of IC50 was more than 200 nM.)
CN(C)c1nc(N[C@H]2CC[C@@H](NC(=S)Nc3cc(Cl)cc(Cl)c3)CC2)nc2ccccc12 [compound 223] | 3 (Class 3: The value of percent of control at 10^−7 M was more than 60% or the value of IC50 was more than 200 nM.)
CN(C)c1nc(N[C@H]2CC[C@@H](NC(=S)Nc3cc(F)cc(F)c3)CC2)nc2ccccc12 [compound 224] | 3 (Class 3: The value of percent of control at 10^−7 M was more than 60% or the value of IC50 was more than 200 nM.)
CN(C)c1nc(N[C@H]2CC[C@@H](NC(=S)Nc3cccc(C#N)c3)CC2)nc2ccccc12 [compound 225] | 3 (Class 3: The value of percent of control at 10^−7 M was more than 60% or the value of IC50 was more than 200 nM.)
CN(C)c1nc(N[C@H]2CC[C@@H](NC(=S)Nc3cccc(F)c3)CC2)nc2ccccc12 [compound 226] | 3 (Class 3: The value of percent of control at 10^−7 M was more than 60% or the value of IC50 was more than 200 nM.)
CN(C)c1nc(N[C@H]2CC[C@@H](NC(=S)Nc3cccc(I)c3)CC2)nc2ccccc12 [compound 227] | 2 (Class 2: The value of percent of control at 10^−7 M was from 40% to 60% or the value of IC50 was from 50 nM to 200 nM.)
COc1cccc(NC(=S)N[C@H]2CC[C@@H](Nc3nc(N(C)C)c4ccccc4n3)CC2)c1 [compound 228, N-(cis-4-{[4-(dimethylamino)quinazolin-2-yl]amino}cyclohexyl)-N′-(3-methoxyphenyl)thiourea] | 2 (Class 2: The value of percent of control at 10^−7 M was from 40% to 60% or the value of IC50 was from 50 nM to 200 nM.)
CN(C)c1nc(N[C@H]2CC[C@@H](NC(=S)Nc3ccc(OC(F)F)cc3)CC2)nc2ccccc12 [compound 229, N-[4-(difluoromethoxy)phenyl]-N′-(cis-4-{[4-(dimethylamino)quinazolin-2-yl]amino}cyclohexyl)thiourea] | 2 (Class 2: The value of percent of control at 10^−7 M was from 40% to 60% or the value of IC50 was from 50 nM to 200 nM.)
CN(C)c1nc(N[C@H]2CC[C@@H](NC(=S)Nc3ccc(OC(F)(F)F)cc3)CC2)nc2ccccc12 [compound 230] | 3 (Class 3: The value of percent of control at 10^−7 M was more than 60% or the value of IC50 was more than 200 nM.)

Same assay, conditions: class by percent of control at 10^-7 M or by IC50; read-out: class

IC50 | SMILES
> 200 nM | CN(C)c1nc(N[C@H]2CC[C@@H](NC(=S)NC(C)(C)CC(C)(C)C)CC2)nc2ccccc12 [compound 190]
> 200 nM | CN(C)c1nc(N[C@H]2CC[C@@H](NC(=S)Nc3ccccc3)CC2)nc2ccccc12 [compound 191]
50 to 200 nM | CN(C)c1nc(N[C@H]2CC[C@@H](NC(=S)Nc3c(F)c(F)c(F)c(F)c3F)CC2)nc2ccccc12 [compound 192, N-(cis-4-{[4-(dimethylamino)quinazolin-2-yl]amino}cyclohexyl)-N′-(pentafluorophenyl)thiourea]
50 to 200 nM | CCCNC(=S)N[C@H]1CC[C@@H](Nc2nc(N(C)C)c3ccccc3n2)CC1 [compound 193, N-(cis-4-{[4-(dimethylamino)quinazolin-2-yl]amino}cyclohexyl)-N′-propylthiourea]
> 200 nM | CN(C)c1nc(N[C@H]2CC[C@@H](NC(=S)Nc3cccc(C(F)(F)F)c3)CC2)nc2ccccc12 [compound 194]
< 50 nM | COc1cc(NC(=S)N[C@H]2CC[C@@H](Nc3nc(N(C)C)c4ccccc4n3)CC2)cc(OC)c1OC [compound 195, N-(cis-4-{[4-(dimethylamino)quinazolin-2-yl]amino}cyclohexyl)-N′-(3,4,5-trimethoxyphenyl)thiourea]
50 to 200 nM | Cc1ccc(NC(=S)N[C@H]2CC[C@@H](Nc3nc(N(C)C)c4ccccc4n3)CC2)cc1 [compound 197, N-(cis-4-{[4-(dimethylamino)quinazolin-2-yl]amino}cyclohexyl)-N′-(4-methylphenyl)thiourea]
> 200 nM | Cc1ccccc1NC(=S)N[C@H]1CC[C@@H](Nc2nc(N(C)C)c3ccccc3n2)CC1 [compound 198]
> 200 nM | CN(C)c1nc(N[C@H]2CC[C@@H](NC(=S)NC(C)(C)C)CC2)nc2ccccc12 [compound 199]
> 200 nM | CN(C)c1nc(N[C@H]2CC[C@@H](NC(=S)Nc3ccccc3Br)CC2)nc2ccccc12 [compound 201]
> 200 nM | CN(C)c1nc(N[C@H]2CC[C@@H](NC(=S)Nc3ccccc3Cl)CC2)nc2ccccc12 [compound 202]
